Reference: publication PMC11229374, “Unlocking the potential of protein-derived peptides to target G-quadruplex DNA: from recognition to anticancer activity” (Nucleic Acids Research, 2024)
Several values for one entry are separate records, joined by “and”; a condition that tells them apart may be missing. Identical values can stand only once.

Columns and labels:
ds12 duplex [1] = assay: Microscale thermophoresis (MST) binding to ds12 duplex; settings: 25°C, 20 nM FITC-labelled peptide, same buffer, n.d. = not determined due to undetectable binding
Description: (§1) MST experiments were conducted using a Monolith NT.115 instrument (NanoTemper Technologies, Munich, Germany) at 25°C with medium MST power settings. […] DNA samples were also diluted using the same buffer supplemented with 0.1% Tween. During MST experiments, the concentration of the labelled peptide was kept constant at 20 nM, while a serial dilution of the investigated DNA molecules (ranging from 10 or 20 μM) was prepared and mixed with the peptide solution in a 1:1 volume ratio. All the samples, with a final concentration of 5% DMSO, were loaded into standard capillaries (NanoTemper Technologies) for MST measurements. Data analysis was carried out using the MO.Affinity Analysis (v2.3) software provided with the instrument.

HT2 G4 = assay: Microscale thermophoresis (MST) binding to HT2 G4; set-up: species or system human; settings: 25°C, 20 nM FITC-labelled peptide, DNA serial dilution, 5 mM KH2PO4/K2HPO4 pH 7.0, 20 mM KCl, 0.1% Tween, 5% DMSO
Description: as §1

c-KIT1 G4 = settings: CD melting at 264 nm, 2 μM DNA, 1 mol equiv peptide, 5 mM KH2PO4/K2HPO4 pH 7.0, 20 mM KCl, 1°C/min; average of three; T1/2 DNA alone 53.8°C
Description: (§2) CD experiments were carried out using a Jasco J-815 spectropolarimeter equipped with a PTC-423S/15 Peltier temperature controller. G4-forming and duplex-forming DNA molecules were prepared at a concentration of 2 μM in 5 mM KH2PO4/K2HPO4 buffer (pH 7.0) containing 20 mM KCl or LiCl. CD spectra of DNA/peptide mixtures were obtained by adding 1 mol equiv of peptide (stock solutions of 10 mM in H2O) with respect to the oligonucleotide. CD spectra of DNA molecules in the absence and presence of peptide were recorded at 20 and 100°C in the wavelength range of 220−320 nm and averaged over three scans, utilizing a scan rate of 100 nm/min with a 0.5 s response time and 1 nm bandwidth. The buffer baseline was subtracted from each spectrum. Additionally, CD spectra of Myb1^397–415 in the absence and presence of G4s were recorded at 20°C in the 200−250 nm wavelength range using a scan rate of 20 nm/min, with a 4 s response time and 2 nm bandwidth. The G4 spectra were subtracted from the corresponding G4/peptide mixtures to obtain information on the peptide spectrum in the presence of G4. The percentage of secondary structures adopted by the peptide in the absence and presence of the G4s was estimated using the BeStSel software ([26]). CD melting experiments were performed in the absence and presence of peptides (1 or 2 mol equiv) in the 20−100°C temperature range at 1°C/min heating rate, monitoring changes of the CD signal at wavelengths corresponding to the maximum CD intensity for the G4s (264 nm for c-KIT1, c-KIT2, c-MYC, HER2, HT-FANA, BCL-2, and VEGFR-17T; 290 nm for HRAS1, LWDLN1, HT1, and HT2) and at 252 nm for ds12 duplex. The apparent melting temperatures (T1/2) were determined using non-linear curve fitting with OriginLab© 2021 software (OriginLab Corp., MA, USA). ΔT1/2 values were calculated as the difference in the T1/2 values of the DNA structures in the presence and absence of a peptide.

ds12 duplex [2] = settings: CD melting at 252 nm, 2 μM DNA, 1 mol equiv peptide, 5 mM KH2PO4/K2HPO4 pH 7.0, 20 mM KCl, 1°C/min; average of three; T1/2 DNA alone 62.7°C
Description: as §2

c-MYC G4 = settings: CD melting at 264 nm, 2 μM DNA, 1 mol equiv peptide, 5 mM KH2PO4/K2HPO4 pH 7.0, 20 mM LiCl, 1°C/min; average of three; T1/2 DNA alone 68.2°C
Description: as §2

BCL-2 G4 = settings: CD melting at 264 nm, 2 μM DNA, 1 mol equiv peptide, 5 mM KH2PO4/K2HPO4 pH 7.0, 20 mM KCl, 1°C/min; average of three; T1/2 DNA alone 60.7°C
Description: as §2

VEGFR-17T G4 = settings: CD melting at 264 nm, 2 μM DNA, 1 mol equiv peptide, 5 mM KH2PO4/K2HPO4 pH 7.0, 20 mM KCl, 1°C/min; average of three; T1/2 DNA alone 53.7°C
Description: as §2

HT-FANA G4 = settings: CD melting at 264 nm, 2 μM DNA, 1 mol equiv peptide, 5 mM KH2PO4/K2HPO4 pH 7.0, 20 mM KCl, 1°C/min; average of three; T1/2 DNA alone 62.9°C
Description: as §2

HER2 G4 = settings: CD melting at 264 nm, 2 μM DNA, 1 mol equiv peptide, 5 mM KH2PO4/K2HPO4 pH 7.0, 20 mM KCl, 1°C/min; average of three; T1/2 DNA alone 62.4°C
Description: as §2

HRAS1 G4 = assay: Microscale thermophoresis (MST) binding to HRAS1 G4; set-up: species or system human; settings: 25°C, 20 nM FITC-labelled peptide, same buffer, n.d. = not determined due to undetectable binding
Description: as §1

## Ac-NHTGNSIRHRFRVYLSKRL-NH2 [Myb^397–415]
ds12 duplex [1]
  Kd for binding to ds12 duplex: negligible
HT2 G4
  Kd: 1180 nM
c-KIT1 G4
  ΔT1/2 of c-KIT1 G4: 6.2 (±0.2) °C
ds12 duplex [2]
  ΔT1/2 of ds12 duplex: 1.0 °C and 1.0 (±0.2) °C
c-MYC G4
  ΔT1/2 of c-MYC G4: 5.0 (±0.2) °C
BCL-2 G4
  ΔT1/2 of BCL-2 G4: 8.0 (±0.2) °C
VEGFR-17T G4
  ΔT1/2 of VEGFR-17T G4: 0.2 (±0.2) °C
HT-FANA G4
  ΔT1/2 of HT-FANA G4: 8.3 °C and 8.3 (±0.2) °C
HER2 G4
  ΔT1/2 of HER2 G4: 7.0 (±0.2) °C
HRAS1 G4
  Kd for binding to HRAS1 G4: negligible binding
